Patent USRE37623E1, “Enzyme inhibitors, their synthesis, and methods for use” (priority 1993, dated 2002)
Where two headings read alike, the source gives them in different places.

How the values were obtained:
[1] = target: T1, UrdPase; experiment: Inhibition of uridine phosphorylase in mouse liver cytosol (apparent Ki, Dixon plots); assay type: biochemical; settings: for Ki: enzyme from mouse liver cytosol, uridine 1 mM, ± S.D.
T1 construct: The supernatant fluids (cytosol) were collected and used as an enzyme source
Method: (§1) Mouse livers were obtained from female Swiss Albino (CD1) mice weighing 20-24 g (Charles River Laboratories, Boston, Mass.). Mice were sacrificed by cervical dislocation and the livers removed, weighed, minced, and homogenized in ice-cold (3:1, v/w) buffer [20 mM potassium phosphate. pH 8.0; 1 mM dithiothreitol (DTT), 1 mM EDTA] using a Polytron homogenizer (Brinkman Instruments, Westbury, N.J.). The homogenates were centrifuged at 105,000×g for 1 h. at 4° C. The supernatant fluids (cytosol) were collected and used as an enzyme source.
(§2) All assays described below were conducted at 37° C. under conditions where enzyme activity was linear with respect to time and enzyme concentration. For each inhibitor, 5 concentrations were used ranging from […]. Reactions were started by the addition of extract and stopped by boiling in a water bath for 2 minutes followed by freezing, Precipitated proteins were removed by centrifugation. Substrates were separated from products in the supematant by TLC and the radioactivity in the spots was determined on a percentage basis using a Berthold LB-2821 Automatic TLC-Linear Analyzer.
Nucleoside cleavage was measured isotopically by following the formation of nucleobases from their respective nucleosides as previously described. […] The incubation was terminated after 30 min. Uridine and thymidine were separated from their respective nucleobases on silica gel TLC plates developed with CHCl3:MEOH:AcOH (90:5:5, v/v/v). The Rf values were uridine, 0.07; uracil, 0.43; thymidine, 0.14; and thymine, 0.62.
Determination and significance of apparent Ki values was pertbrined using uridine (1 mM) and 5 different concentrations of the inhibitor ranging from […]. Apparent Ki values were estimated from Dixon's plots (1/v vs. [I]) of the data by a computer program with least squares fitting. Apparent Ki, values are related to Ki values by the following equation:
Apparent Ki=Kis(1+[S]/Km)/1+([S]/Km) (Kis/Kii)
where Kis and Kii are inhibition constants that would have been estimated from the replot of slope and intercept, respectively, of a Lineweaver-Burk plots vs. [I]. If a compound is a competitive inhibitor with respect to uridine, Kii=∝ and Kis=Ki. Therefore, the apparent .Ki=Ki(1+[S]1 Km). […] It should be noted, however, that we have not characterized the compounds used in this study with regard to the type of inhibition (competitive, noncompetitive, or uncompetitive) or whether they are substrates for the enzyme.

[2] = target: T2, DHUDase (Mus musculus, UniProt Q8CHR6); experiment: Inhibition of dihydrouracil dehydrogenase in mouse liver cytosol (apparent Ki); assay type: biochemical; settings: enzyme from mouse liver cytosol; 25 μM uracil; ± S.D.
T2 construct: The supernatant fluids (cytosol) were collected and used as an enzyme source; from tissue; host or cells: mouse liver cytosol (female Swiss Albino CD1 mice)
T2 sequence (Q8CHR6 1-1025): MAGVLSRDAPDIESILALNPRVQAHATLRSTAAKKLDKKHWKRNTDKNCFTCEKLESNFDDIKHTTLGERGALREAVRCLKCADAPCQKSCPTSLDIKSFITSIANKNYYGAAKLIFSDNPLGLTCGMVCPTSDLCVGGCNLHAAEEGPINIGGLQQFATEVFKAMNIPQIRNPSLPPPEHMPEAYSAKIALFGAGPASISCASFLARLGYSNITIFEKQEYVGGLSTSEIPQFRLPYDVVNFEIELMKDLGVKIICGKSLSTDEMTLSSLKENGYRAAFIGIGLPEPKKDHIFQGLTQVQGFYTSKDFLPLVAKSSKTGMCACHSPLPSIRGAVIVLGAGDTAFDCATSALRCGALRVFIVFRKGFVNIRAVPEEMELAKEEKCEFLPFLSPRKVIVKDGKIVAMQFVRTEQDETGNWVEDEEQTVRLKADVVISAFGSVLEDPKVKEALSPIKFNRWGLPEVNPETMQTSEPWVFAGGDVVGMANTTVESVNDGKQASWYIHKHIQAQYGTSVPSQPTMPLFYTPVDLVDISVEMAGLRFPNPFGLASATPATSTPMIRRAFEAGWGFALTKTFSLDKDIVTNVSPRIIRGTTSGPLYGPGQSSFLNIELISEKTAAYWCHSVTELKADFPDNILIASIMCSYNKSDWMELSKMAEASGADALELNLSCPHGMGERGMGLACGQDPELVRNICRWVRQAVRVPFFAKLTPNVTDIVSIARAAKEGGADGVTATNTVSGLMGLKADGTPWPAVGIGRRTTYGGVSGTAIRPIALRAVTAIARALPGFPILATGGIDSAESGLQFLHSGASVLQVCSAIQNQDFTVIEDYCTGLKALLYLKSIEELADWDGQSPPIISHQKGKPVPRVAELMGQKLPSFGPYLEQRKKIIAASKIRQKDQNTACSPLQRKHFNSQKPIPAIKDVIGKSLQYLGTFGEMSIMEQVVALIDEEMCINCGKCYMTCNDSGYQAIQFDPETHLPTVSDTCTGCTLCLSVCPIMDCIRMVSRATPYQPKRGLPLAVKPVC
Method: as §1, §2
The activity of the enzyme was measured by following the formation of dihydrouracil, carbamyl-β-alanine, and β-alanine from [6 -^14C]uracil as previously described. […] DHUDase activity was determined as the sum of the products dihydrouracil, carbamyl-β-alanine, and β-alanine. […]

[3] = Pharmacokinetics of PSAU in CD-1 mice; assay type: in vivo; settings: female CD-1 mice; for Cmax / half-life / MRT: mouse, ip, plasma; for Cmax: read-out: Cmax, peak plasma concentration; for half-life: read-out: Apt½, elimination half-life (converted); for MRT: read-out: MRT, mean residence time
Method: PSAU was injected i.p. into female CD-1 mice. At various time intervals, 250 μl of whole blood were collected from the orbital sinuses from three mice by a heparinized Natelson pipet and placed on ice. The whole blood was then centrifuged for 5 minutes to separate the plasma which was kept in a -20° C. freezer until preparation for analysis by the HPLC. The pharmacokinetic parameters were estimated by compartmental model-independent methods using a […]/Base program. The AUC was determined by the trapezoidal rule with extrapolation to time infinity using the terminal disposition slope (K) generated by a weighted nonlinear least-squares regression of an exponential fit of the data, with the weighted square factor set as the reciprocal of the calculated concentration squared. Elimination half-life of uridine was calculated from 0.693/K The total plasma clearance (C1) was calculated by dividing the dose by the AUC and the weight of the mouse. The peak plasma concentration (Cmax) values and time to peak plasma concentration (Tmax) values were observed experimental values. Renal clearance (CLR) of uridine was calculated by dividing the […] by the AUC.

O=c1[nH]c(=O)n(COCCO)cc1Cc1ccccc1 [5-Benzylacyclouridine (BAU), 5-Benzylacyclouridine, reference compound]
Ki [1]: 3.1 ± 0.22 µM

O=c1ccn([C@@H]2O[C@H](CO)[C@@H](O)[C@H]2O)c(=O)[nH]1 [uridine]
Km ([1]; UrdPase from mouse liver, substrate): 66 µM

CCOCn1cc([Se]c2ccccc2)c(=O)[nH]c1=O [1-Ethoxymethyl-5-phenylselenenyluracil, 1-(Ethoxymethyl)-5-(phenylselenenyl)uracil]
melting point: 143 to 145 °C
Ki [1]: 313 ± 32 µM

O=c1[nH]cc([Se]c2ccccc2)c(=O)[nH]1 [5-Phenylselenenyluracil (PSU), 5-Phenylselenenyluracil]
melting point: 249 to 251 °C
Ki [1]: 205 ± 35 µM
Ki [2]: 4.8 ± 0.6 µM

O=c1[nH]c(=O)n([C@H]2C[C@H](O)[C@@H](CO)O2)cc1[Se]c1ccccc1 [5-(Phenylselenenyl)-2′-deoxyuridine, 5-(phenylselenenyl)-2′-deoxyuridine]
Ki [1]: 5.5 ± 0.6 µM

O=c1[nH]c(=O)n(COCCO)c([Se]c2ccccc2)c1F [6-(Phenylselenenyl)acyclo-5-FUrd]
Ki [1]: 35 ± 5.6 µM

O=c1[nH]c(=O)n(COCCO)cc1[Se]c1ccccc1 [PSAU, 1-[(2-Hydroxyethoxy)methyl]-5-(phenylselenenyl)uracil]
ApVd, volume of distribution ([3]; PSAU 30 mg/kg i.p.): 0.331 L/kg
ApVd, volume of distribution ([3]; PSAU 60 mg/kg i.p.): 0.356 L/kg
Cmax ([3]; PSAU 30 mg/kg i.p.): 100 µM
Cmax ([3]; PSAU 60 mg/kg i.p.): 210 µM
half-life ([3]; PSAU 30 mg/kg i.p.): 0.7 h
MRT ([3]; PSAU 30 mg/kg i.p.): 1.28 h
half-life ([3]; PSAU 60 mg/kg i.p.): 1.4 h
MRT ([3]; PSAU 60 mg/kg i.p.): 2.27 h
Ki [1]: 3.8 ± 0.8 µM

O=c1cc([Se]c2ccccc2)n(COCCO)c(=O)[nH]1 [6-(Phenylselenenyl)acyclouridine, 1-[(2-hydroxyethoxy)methyl]-6-(phenylselenenyl)uridine]
Ki [1]: 19.3 ± 1.5 µM

O=c1[nH]c(=O)n([C@@H]2O[C@H](CO)[C@@H](O)[C@H]2O)cc1[Se]c1ccccc1 [5-(Phenylselenenyl)uridine, 5-(phenylselenenyl)uridine]
Ki [1]: 4 ± 0.2 µM

O=c1[nH]cc(Sc2ccccc2)c(=O)[nH]1 [5-Phenylthiouracil (PTU), 5-(Phenylthio)uracil]
Ki [1]: 744 ± 85 µM
Ki [2]: 5.4 ± 0.6 µM
